Assay results: ChEMBL document CHEMBL1201862, “PubChem BioAssay data set” (2004)
Calls of active or inactive are those of the source.

Key:
Vero [1] = assay: cells; format: functional, cell-based; conditions: Chlorocebus sabaeus
Vero [2] = assay: cells; format: functional; conditions: Chlorocebus sabaeus
[3] = reduction of Shn3 3'UTR-driven luciferase in osteoblasts – cell-based, Clone20 osteoblasts, firefly luciferase, cherry-picked, dose response (AID 624132); format: functional;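 further: firefly luciferase luminescence from reporter carrying the Shn3 3'UTR in osteoblasts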
[4] = loss of viability in HepG2 cells – cell-based, CellTiter-Glo, cherry-picked, cytotoxicity control for Shn3 inhibitor project, dose response (AID 624134); format: functional
[5] = non-specific 3'UTR reporter inhibition in Clone20-Shn3RL – cell-based, Renilla luciferase, cherry-picked, counter-screen for Shn3 inhibitor project, dose response (AID 624133); format: functional
[6] = Trypanosoma cruzi growth suppression in host cells – NIH3T3 host cells, beta-gal luminescence, confirmation (AID 2044); format: functional, cell-based;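 further: intracellular parasites grown in NIH/3T3 mouse fibroblasts as host cells; luminescent beta-galactosidase reporter signal from transgenic T. cruzi replicating inside host cells; inhibitors lower the luminescence signal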
[7] = NIH3T3 cell viability loss – ATP luminescence, mouse fibroblasts, counter-screen, dose response (AID 2010); format: functional, cell-based;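 further: cells exposed to compound for about 90 hours before reading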
[8] = molecular target: Induced myeloid leukemia cell differentiation protein Mcl-1 (Homo sapiens, UniProt Q07820); format: functional
[9] = molecular target: Eukaryotic translation initiation factor 4E (Mus musculus, UniProt P63073); assay: blockers of eIF4G binding by eIF4E – biochemical, TR-FRET, dose response (AID 855); format: functional;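 further: potency for disrupting eIF4E binding to eIF4GI seen as loss of FRET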
Genome polyprotein = Genome polyprotein (dengue virus type 2, UniProt P29990); assay: flavivirus cap methylation enzyme inhibition – biochemical, confirmation dose response, primary screen (AID 588689); format: functional
[10] = molecular target: T1, E3 ubiquitin-protein ligase XIAP (Homo sapiens, UniProt P98170); assay: Counter Screen using XIAP-Bir3 for Chemical Antagonists of Bir1/2 domains of IAP-family anti-apoptotic proteins. [Related pubchem assays (depositor defined):AID1018, AID1449, AID1514, AID1638, AID1749, AID1750, AID488957, AID488963]
[11] = molecular target: T1, E3 ubiquitin-protein ligase XIAP; assay: small molecules displacing peptide from XIAP – biochemical, IAP family, fluorescence polarization (AID 1018); format: functional
HEK293 [12] = assay: inhibition of NOD1-driven NF-kB reporter – cell-based, luminescence, uHTS, primary screen (AID 1578); format: functional; conditions: Homo sapiens
HEK293 [13] = assay: cells; format: functional, cell-based; conditions: Homo sapiens
HEK293 [14] = assay: cells; format: functional, cell-based; conditions: Homo sapiens; remark: listed apart in the source
[15] = molecular target: T2, Short transient receptor potential channel 4 (Mus musculus, UniProt Q9QUQ5); assay: calcium entry via TRPC4 opening agents – cell-based, HEK293 TRPC4/mu-opioid, Fluo-4 calcium, dose response (AID 434937); format: functional
T2 sequence (Q9QUQ5 whole entry): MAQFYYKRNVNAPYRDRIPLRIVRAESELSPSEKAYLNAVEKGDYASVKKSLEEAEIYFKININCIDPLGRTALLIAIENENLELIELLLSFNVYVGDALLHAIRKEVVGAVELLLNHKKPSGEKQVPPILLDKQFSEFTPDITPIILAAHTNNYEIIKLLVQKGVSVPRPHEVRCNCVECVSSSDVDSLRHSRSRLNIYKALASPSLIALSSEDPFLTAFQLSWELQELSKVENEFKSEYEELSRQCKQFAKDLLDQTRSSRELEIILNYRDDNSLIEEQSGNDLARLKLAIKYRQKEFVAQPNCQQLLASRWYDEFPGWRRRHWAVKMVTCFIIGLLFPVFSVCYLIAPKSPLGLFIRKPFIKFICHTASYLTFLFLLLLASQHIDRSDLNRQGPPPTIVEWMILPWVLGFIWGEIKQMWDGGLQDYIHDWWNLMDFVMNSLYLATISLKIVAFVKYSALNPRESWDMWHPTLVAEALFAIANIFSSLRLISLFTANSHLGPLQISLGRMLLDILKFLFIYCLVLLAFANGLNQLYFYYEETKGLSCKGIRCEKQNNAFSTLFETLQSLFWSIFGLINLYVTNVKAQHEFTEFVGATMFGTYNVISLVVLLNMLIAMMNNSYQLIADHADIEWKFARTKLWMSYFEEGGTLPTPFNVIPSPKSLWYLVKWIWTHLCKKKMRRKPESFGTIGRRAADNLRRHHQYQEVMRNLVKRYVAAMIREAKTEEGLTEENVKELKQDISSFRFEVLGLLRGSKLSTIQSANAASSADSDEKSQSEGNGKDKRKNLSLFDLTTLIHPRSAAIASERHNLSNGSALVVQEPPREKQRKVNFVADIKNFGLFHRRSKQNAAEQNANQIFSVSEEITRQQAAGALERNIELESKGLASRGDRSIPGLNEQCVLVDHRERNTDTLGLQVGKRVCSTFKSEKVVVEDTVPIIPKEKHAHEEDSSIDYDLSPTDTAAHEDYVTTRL

[16] = HEK-293T viability loss after treatment – luminescence, T-cell screen hits, cytotoxicity control for TCR NF-kB inhibitor project, dose response (AID 489026); format: functional, cell-based;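 further: cells exposed to compound about 14 hours before the viability readout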
cells [17] = assay: cells
[18] = Luminescence Cell-Based Dose Retest to Confirm Inhibitors of Cancer Stem Cells. [Related pubchem assays (depositor defined):AID2717, AID2721]; format: functional; conditions: Homo sapiens
[19] = molecular target: Glucose-6-phosphate 1-dehydrogenase (Homo sapiens, UniProt P11413); assay: inhibition of Homo sapiens G6PD, dose series – biochemical, fluorescence, selectivity assay for P. falciparum G6PD inhibitor project, dose response (AID 504792); format: functional
[20] = system: Streptococcus sp. 'group A'; assay: Streptococcus pyogenes SK(-)GAS viability under kanamycin – luminescence, BacTiterGlo, confirmation, counter-screen for streptokinase expression inhibitor project, dose response (AID 1900); format: functional, organism-based
Streptococcus = assay: GAS UMAA2166 growth inhibition – luminescence, BacTiterGlo, counter-screen for streptokinase expression inhibitor project, dose response (AID 1915); format: functional, organism-based;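 further: potency for reduction of bacterial viability or growth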
[21] = THP-1 cell cytotoxicity, dose response, cytotoxicity control for non-replicating M. tuberculosis project (AID 489025); format: functional
cells [22] = format: functional

T1 sequence (P98170 whole entry): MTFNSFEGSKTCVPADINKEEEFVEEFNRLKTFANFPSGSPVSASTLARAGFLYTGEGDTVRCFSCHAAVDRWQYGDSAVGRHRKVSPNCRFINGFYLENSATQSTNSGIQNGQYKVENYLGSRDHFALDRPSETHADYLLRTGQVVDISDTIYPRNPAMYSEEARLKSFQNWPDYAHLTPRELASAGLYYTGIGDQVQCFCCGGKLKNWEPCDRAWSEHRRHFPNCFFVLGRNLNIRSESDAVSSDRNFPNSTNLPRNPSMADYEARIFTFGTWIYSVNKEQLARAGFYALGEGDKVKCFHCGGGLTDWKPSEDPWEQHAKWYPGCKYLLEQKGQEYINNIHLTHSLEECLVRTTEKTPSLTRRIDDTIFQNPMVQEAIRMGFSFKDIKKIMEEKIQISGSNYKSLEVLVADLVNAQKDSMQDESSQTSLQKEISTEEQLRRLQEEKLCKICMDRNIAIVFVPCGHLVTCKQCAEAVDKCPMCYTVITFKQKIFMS
Sequence of Eukaryotic translation initiation factor 4E (P63073 whole entry): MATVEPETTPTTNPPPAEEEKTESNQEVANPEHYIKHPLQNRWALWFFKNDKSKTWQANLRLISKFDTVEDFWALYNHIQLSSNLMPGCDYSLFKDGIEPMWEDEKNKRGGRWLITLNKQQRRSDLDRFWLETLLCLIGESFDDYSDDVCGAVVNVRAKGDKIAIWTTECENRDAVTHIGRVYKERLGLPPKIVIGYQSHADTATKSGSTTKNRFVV
Sequence of Glucose-6-phosphate 1-dehydrogenase (P11413 whole entry): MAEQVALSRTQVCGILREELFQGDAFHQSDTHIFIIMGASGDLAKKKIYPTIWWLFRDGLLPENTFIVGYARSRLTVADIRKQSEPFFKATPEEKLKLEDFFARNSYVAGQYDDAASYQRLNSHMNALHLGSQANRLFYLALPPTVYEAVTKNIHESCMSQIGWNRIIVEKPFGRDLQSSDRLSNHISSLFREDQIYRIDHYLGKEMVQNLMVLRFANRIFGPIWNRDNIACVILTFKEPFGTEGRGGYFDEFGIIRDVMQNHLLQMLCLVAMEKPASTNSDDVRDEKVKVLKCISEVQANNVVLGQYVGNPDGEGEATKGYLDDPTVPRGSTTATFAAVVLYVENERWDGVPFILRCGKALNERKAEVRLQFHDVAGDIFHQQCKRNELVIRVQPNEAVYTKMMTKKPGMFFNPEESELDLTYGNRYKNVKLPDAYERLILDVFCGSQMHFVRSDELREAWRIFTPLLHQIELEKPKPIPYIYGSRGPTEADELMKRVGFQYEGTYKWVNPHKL
Sequence of Genome polyprotein (P29990 2492-3391 limits assumed): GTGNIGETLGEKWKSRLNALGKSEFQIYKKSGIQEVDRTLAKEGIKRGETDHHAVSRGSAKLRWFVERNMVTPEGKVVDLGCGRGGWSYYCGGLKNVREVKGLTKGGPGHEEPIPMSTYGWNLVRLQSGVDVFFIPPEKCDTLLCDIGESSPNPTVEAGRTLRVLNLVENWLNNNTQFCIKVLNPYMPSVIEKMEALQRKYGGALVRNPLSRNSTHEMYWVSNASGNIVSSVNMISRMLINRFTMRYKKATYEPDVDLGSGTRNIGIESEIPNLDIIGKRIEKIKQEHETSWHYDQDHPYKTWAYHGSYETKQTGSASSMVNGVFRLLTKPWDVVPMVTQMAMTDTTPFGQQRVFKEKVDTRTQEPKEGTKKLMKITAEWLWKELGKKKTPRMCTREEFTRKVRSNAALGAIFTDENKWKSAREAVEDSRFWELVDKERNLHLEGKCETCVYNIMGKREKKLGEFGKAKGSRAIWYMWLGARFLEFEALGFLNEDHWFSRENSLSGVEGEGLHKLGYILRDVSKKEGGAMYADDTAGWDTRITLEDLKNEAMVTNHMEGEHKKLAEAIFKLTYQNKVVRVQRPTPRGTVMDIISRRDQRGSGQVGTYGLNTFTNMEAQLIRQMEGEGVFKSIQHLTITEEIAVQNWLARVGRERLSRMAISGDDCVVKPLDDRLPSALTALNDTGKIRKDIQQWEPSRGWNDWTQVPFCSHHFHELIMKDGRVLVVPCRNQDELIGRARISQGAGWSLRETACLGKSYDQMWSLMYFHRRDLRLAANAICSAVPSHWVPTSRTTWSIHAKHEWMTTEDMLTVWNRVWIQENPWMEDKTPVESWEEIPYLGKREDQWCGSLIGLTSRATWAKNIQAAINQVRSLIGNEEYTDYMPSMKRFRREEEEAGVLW
Sequence of Induced myeloid leukemia cell differentiation protein Mcl-1 (Q07820 whole entry): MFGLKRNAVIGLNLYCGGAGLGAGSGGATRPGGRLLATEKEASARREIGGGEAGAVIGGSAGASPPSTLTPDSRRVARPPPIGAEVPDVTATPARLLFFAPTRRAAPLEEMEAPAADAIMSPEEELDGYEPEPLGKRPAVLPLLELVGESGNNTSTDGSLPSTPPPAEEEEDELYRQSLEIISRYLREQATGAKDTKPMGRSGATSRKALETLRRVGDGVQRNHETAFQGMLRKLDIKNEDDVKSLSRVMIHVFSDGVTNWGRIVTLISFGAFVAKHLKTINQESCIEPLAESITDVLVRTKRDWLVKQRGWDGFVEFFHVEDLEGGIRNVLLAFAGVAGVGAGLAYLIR

What does the source list for `CCC1CSC(Nc2ccc(C(=O)/C=C/c3ccc(OC)c(OC)c3)cc2)=N1` (stereo not drawn)?
IC50 (Vero [1]): 23.5 µM (active); CC50 (Vero [2]): 18.1 µM (active); AC50 [3]: 4.47 µM (active); AC50 [4]: 51.2 µM (active); AC50 [5]: 6.23 µM (active)

For `Cc1ccc(O)c(NC2=C(Cl)C(=O)N(Cc3ccccc3)C2=O)c1`, which EC50 [6] is on record?
The EC50 was 4.37 µM (active).

And the EC50 [7]?
Its EC50 is > 60 µM (inconclusive).

And the IC50 [8]?
Its IC50 is 3.01 µM (not active).

And the IC50 [9]?
Its IC50 is 50 µM (inactive).

What about the IC50 (Genome polyprotein) of the same compound?
Its IC50 is > 100 µM (active).

With `Fc1cccc(COc2ccccc2CNc2ccccc2)c1` as the compound, how does the IC50 [10] read?
Its IC50 is > 100 µM (inactive).

And the IC50 [11]?
Its IC50 is > 100 µM (not active).

For `CCCC[n+]1c(C=C2C=Cc3ccccc3N2CC)sc2ccccc21`, which EC50 (HEK293 [12]) is on record?
Its EC50 is 2.17 µM (active).

And the IC50 (HEK293 [13])?
Its IC50 is 1.96 µM (active).

What about the IC50 (HEK293 [14]) of the same compound?
Its IC50 is 11.1 µM (active).

What about the EC50 [6] of the same compound?
The EC50 was < 0.1 µM (active).

What about the EC50 [7] of the same compound?
Its EC50 is > 60 µM (not active).

What about the EC50 [15] of the same compound?
The EC50 was 7.5 µM (active).

What about the IC50 [16] of the same compound?
The IC50 was > 80 µM (inactive).

What about the EC50 (cells [17]) of the same compound?
Its EC50 is 0.058 µM (active).

For `CCOc1ccccc1NC(=O)C1CCN(S(=O)(=O)c2cccc3cccnc23)CC1`, which IC50 [9] is on record?
Its IC50 is > 64 µM (inactive).

With `O=C1CC(=C(c2ccccc2)c2ccccc2)C(=O)N1CCCCN1CCN(c2cccc(Cl)c2)CC1` as the compound, how does the IC50 [10] read?
Its IC50 is > 100 µM (inactive).

And the IC50 [11]?
Its IC50 is > 100 µM (not active).

What about the AC50 [18] of the same compound?
Its AC50 is 0.624 µM (active).

Which IC50 [19] does the source give for `Cc1ccc(N2CC(C(=O)OCC(=O)c3ccc([N+](=O)[O-])cc3)CC2=O)cc1` (stereo not drawn) here?
Its IC50 is > 80 µM (inactive).

What does the source list for `COc1ccc(C(=O)NNC(=S)NC(=O)/C=C/c2cccs2)cc1`?
EC50 [20]: 0.802 µM (active); EC50 (Streptococcus): 4.2 µM (active); IC50 (Vero [1]): > 25 µM (active); CC50 (Vero [2]): > 25 µM (active)

Which EC50 [6] does the source give for `CC(C)(C)c1ccccc1OCCOCCN1CCCCCC1` here?
The EC50 was 0.651 µM (active).

What about the EC50 [7] of the same compound?
The EC50 was > 60 µM (inconclusive).

What about the CC50 [21] of the same compound?
The CC50 was 27.6 µM (active).

What about the IC50 (cells [22]) of the same compound?
The IC50 was > 50 µM (active).
